This is an account of results in PubChem BioAssay AID179 (DTP/NCI, 2004).

The test system of the experiment is CEM cells HIV-1 protection, formazan growth assay. Kind of experiment: NCI AIDS Antiviral Assay. The settings on record: for IC50: measured here: growth of uninfected CEM cells. A digest of the protocol: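 Human CEM cells, uninfected and HIV-1-infected, received five drug concentrations, and growth was read by soluble formazan assay. Compounds giving at least 50% protection were retested; reproducible 100% protection defined confirmed active.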

Active and inactive are the calls of the source.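 How the source made its calls: active means compounds giving half or more protection of infected cells from virus-caused growth loss, again on retest; inactive means the rest.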

Consider `CCC1NCC(=O)c2c1[nH]c1ccccc21` (stereo not given), for which the outcome was inactive.
For orientation: EC50 means the concentration giving half of the maximal effect. As a reminder, the IC50 is the concentration that inhibits the measured activity by half. A low value points to greater potency. In the case of `Cc1cc2nc3c4ccccc4n(C)c3nc2cc1C`, the EC50 is > 7.59 µM and the IC50 stood at 5.25 µM.
Taken in the same sequence, the figures for `O=S(=O)(Sc1ccc(Cl)cc1)c1ccc(Cl)cc1` were > 20 µM and 4.27 µM.
Turning to `CC(=O)NNc1nc(C)c(C(=O)NNC(=O)C(=O)Nc2c(C)cccc2C(C)(C)C)s1`, the EC50 is > 151 µM and the IC50 came to 26.3 µM.
With `COC(=O)C12C34C=CC5(CCC6(C=CC1(CC3)O6)C52C(=O)OC)O4` (stereo not given), the result was inactive.
As for `CN(C)c1ccc(/C=C(\NC(=O)c2ccccc2)C(=O)Nc2ccccc2C(=O)N/N=C/c2ccc(N(C)C)cc2)cc1`, the EC50 is > 25.1 µM and the IC50 was > 25.1 µM.
Turning to `CCC[CH2][Sn]([CH2]CCC)([O]C(=O)C(OC(C)=O)c1ccccc1)[O]C(=O)C(OC(C)=O)c1ccccc1` (stereo not given), the EC50 was > 11.5 µM and the IC50 worked out at 0.191 µM.
Take `O=C1c2c(/C=C/c3ccc(Cl)c(Cl)c3)nc3ccccc3c2C(=O)N1CCN1CCCCC1`: the EC50 is > 7.59 µM and the IC50 was > 7.59 µM.
Turning to `COc1cc2cc[n+]3c(C)c4cc(OC)c(OC)cc4c([O-])c3c2cc1OC`, the EC50 is > 200 µM and the IC50 came out at 123 µM.
Taken in the same sequence, the figures for `N#Cc1c2c(c(Cl)n3c1nc1ccccc13)CCCC2` were > 3.72 µM and > 3.72 µM.
Taken in the same sequence, the figures for `CCO/C(CCn1[nH]c(=O)c(Cl)c(Cl)c1=O)=N\NC(=O)C(=O)NN` were > 7.08 µM and > 7.08 µM.
For `Nc1ncnc2ccc(Sc3ccc4ncnc(N)c4c3)cc12` the same measures were > 100 µM and > 100 µM.
Take `NC(=O)c1nnc2cc(F)c(F)cc2c1N`: the EC50 is > 200 µM and the IC50 was > 200 µM.
Take `C1OC1[C@@H]1CC[C@@H]([C@@H]2CC[C@@H]([C@H]3CO3)O2)O1` (stereo not given in full): the result was inactive and the IC50 was 39.8 µM.
In the case of `COc1cc(OC)cc(OCc2nc3cc(C(F)(F)F)ccc3nc2-c2ccccc2)c1`, the EC50 is > 200 µM and the IC50 was determined as 52.5 µM.
Take `O=C1NC(O)c2cc(Cl)ccc2O1` (stereo not given): the result was inactive.
On the same count and under the same terms, to `O=C(c1ccc([N+](=O)[O-])cc1)c1no[n+]([O-])c1C(=O)c1ccc([N+](=O)[O-])cc1` belongs “inactive”.
As for `CSc1ccccc1NC1=NCCO1`, the EC50 was > 200 µM and the IC50 was > 200 µM.
Consider `CCCCCCCCCc1cc(=O)c2c(O)cc(O)cc2o1`, for which the result was inactive.
Take `COC(=O)C1C2CC3C(OC(=O)C31)C2I` (stereo not given): the result was inactive.
Regarding `COc1ccc(C(=O)Cc2nc3nnc(N)n3nc2CC(=O)c2ccc(OC)cc2)cc1`, the EC50 was > 575 µM and the IC50 was > 575 µM.
With `NCC(O)c1ccc(Nc2ccnc3cc(Cl)ccc23)cc1` (stereo not given), the EC50 was > 93.3 µM and the IC50 came to 38 µM.
Taken in the same sequence, the figures for `Cc1cc(S(N)(=O)=O)c(SCc2nc(N)nc(N(C)C)n2)cc1Cl` were > 200 µM and > 200 µM.
With `CCSc1[nH]c(Nc2nc(-c3ccccc3)n(-c3ccccc3)n2)c(C(N)=O)c1C(N)=O`, the outcome was inactive.
On the same count and under the same terms, to `Cc1cc(N(CCC#N)CCC#N)ccc1/C=C(\NC(=O)/C=C/c1ccccc1)C(=O)N=[N+]=[N-]` belongs “inactive”.
In the case of `CN(C)c1ccc(/C=C2\C(=O)Nc3ccccc32)cc1`, the EC50 was > 10.2 µM and the IC50 is > 10.2 µM.
Take `O=c1[nH]c(N/N=C\C(O)C(O)C(O)C(O)CO)nc2ccccc12` (stereo not given): the EC50 was > 200 µM and the half-inhibitory concentration (IC50) was > 200 µM.
Take `CCn1c(=O)c2nc(SC)sc2n(-c2ccccc2)c1=O`: the EC50 was > 200 µM and the concentration for half-maximal inhibition (IC50) was > 200 µM.
On to `COc1nc2c(nc(N)n2C2OC(CO)C(O)C(O)C2O)c(=O)n1C` (stereo not given), for which the outcome was inactive.
Regarding `NC(N)=NS(=O)(=O)c1ccc(-n2sc3ccccc3c2=O)cc1`, the EC50 is 4.37 µM and the IC50 turned out to be 19.1 µM.
Take `COc1c2oc(=O)ccc2c(Br)c2c(Br)c(Br)oc12`: the EC50 is > 102 µM and the IC50 was found to be 47.9 µM.
Taken in the same sequence, the figures for `CS(=O)(=O)O[C@H]1CN2C[C@@H](O)[C@@H](O)[C@H]2[C@H]1CO` were > 200 µM and > 200 µM.
`CO/C=C/c1cc2c(cc1C(OC)OC)OCO2`: the outcome was inactive.
`N#CCC(=O)N/N=C(\C(=O)Nc1ccc(Cl)c(Cl)c1)C1CN(c2ccccc2)N=C1N` (stereo not given): the EC50 was > 79.4 µM and the IC50 is > 79.4 µM.
As for `CC(C)(C)OC(=O)NC(CCCCNC(=O)OCc1ccccc1)C(=O)NCCNc1ccc(NCCNC(=O)C(CCCCNC(=O)OCc2ccccc2)NC(=O)OC(C)(C)C)c2c1C(=O)c1ccccc1C2=O` (stereo not given), the EC50 is > 151 µM and the IC50 stood at 8.51 µM.
Taken in the same sequence, the figures for `Cc1cc2oc(=O)cc(C)c2c(=O)o1` were > 200 µM and > 200 µM.
For `Nc1ccc(/C=C/c2ccc(NCc3c(O)cc(O)cc3C(=O)O)cc2S(=O)(=O)O)c(S(=O)(=O)O)c1` the same measures were 107 µM and > 200 µM.
`C1COCCOP2(N3CC3)=NP(N3CC3)(=NP(N3CC3)(N3CC3)=N2)OCCOCCO1` (stereo not given): the EC50 was > 200 µM and the IC50 amounted to 21.4 µM.
On to `C=CC1C2=C(C(=O)NCC2)C2OC(O)C3=C(CCNC3=O)C2C1C` (stereo not given), for which the result was inactive.
Consider `CC1=Nc2nc3ccccc3n2C(C)(C)C1`, for which the EC50 is > 174 µM and the IC50 stood at 112 µM.
Turning to `CCN(CC)/[N+]([O-])=N/OC`, the result was inactive.
Turning to `COc1ccc(-c2oc3ccccc3c(=O)c2O)cc1OC`, the EC50 is > 200 µM and the IC50 was found to be 138 µM.
Taken in the same sequence, the figures for `CCCCCC=C(c1cc(I)c(OC)c(C(=O)OC)c1)c1cc(I)c(OC)c(C(=O)OC)c1` were > 200 µM and 166 µM.
Taken in the same sequence, the figures for `C=C(C)CC1=C(C(=S)NCCO[Si](C)(C)C(C)(C)C)C(OCC)(OCC)C1=O` were > 200 µM and 11.5 µM.
For `CCCC(O)C(=O)C(CCC)N(CC)CC` (stereo not given) the same measures were > 1100 µM and > 1100 µM.
On to `O=C1CN(CC2=CC3(CC2)CCC2=C3CCCC2=O)C(=O)N1` (stereo not given), for which the EC50 was > 417 µM and the IC50 is > 417 µM.
Take `COC(=O)C1(C(=O)OC)C2(CCCC2)C1(C(=O)OC)C(=O)OC`: the EC50 is > 200 µM and the IC50 was > 200 µM.
For the compound `NC1CNC(=O)c2c(Cl)sc(Cl)c21` (stereo not given), the EC50 is > 200 µM and the IC50 is > 200 µM.
Consider `CC[C@@]1(O)C(=O)OCc2c1cc1n(c2=O)Cc2c-1nc1ccccc1c2Cl`, for which the EC50 is > 10 µM and the IC50 stood at 0.0331 µM.
Taken in the same sequence, the figures for `O=C1N=NC2=C1c1c3ccccc3c(O)n1CC2` were > 200 µM and 166 µM.
For `O=c1c2ccccc2c(=O)n2n1C1C=CC2C1` the same measures were > 44.7 µM and > 44.7 µM.
`C[C@]12CCC(=O)C[C@H]1CCC(O)[C@@H]2Br` (stereo not given in full): the result was inactive.
As to `COC(=O)c1ccc(N2CC=C(C)C(c3ccc(OC)cc3)O2)cc1` (stereo not given), the EC50 was > 15.5 µM and the IC50 is > 15.5 µM.
`Cc1cccc(/C=N/NC(=S)NC(C)(C)C)n1`: the EC50 was > 200 µM and the IC50 was determined as 18.2 µM.
Take `CCN(CC)Cc1cc(O)c(CN(CC)CC)cc1O`: the EC50 is > 891 µM and the IC50 is 72.4 µM.
Turning to `CC1CC(C(=O)CC2CC(=O)NC(=O)C2)C(=O)[C@@H](C)C1` (stereo not given in full), the outcome was inactive.
As to `CCOC(=O)C1C(=O)CC(O)(c2ccccc2)C(C(=O)OCC)C1c1ccc(OC)cc1` (stereo not given), the EC50 was > 200 µM and the IC50 was 5.01 µM.
Taken in the same sequence, the figures for `O=C1c2ccncc2C(=O)c2c1[nH]c1ccccc21` were > 200 µM and 3.16 µM.
Taken in the same sequence, the figures for `O=C(/C=C/c1ccccc1)c1c2ccccc2cc2ccccc12` were > 8.91 µM and > 8.91 µM.
Taken in the same sequence, the figures for `NC(N)=NC(CSSCC(N=C(N)N)C(=O)O)C(=O)O` (stereo not given) were > 200 µM and > 200 µM.
Consider `CCOC(=O)c1sc(SC)nc1NC(=O)c1ccc(Cl)cc1`, for which the EC50 was > 200 µM and the IC50 is > 200 µM.
Turning to `N#CC(N)=Nc1ccccc1`, the EC50 is > 617 µM and the IC50 was determined as 347 µM.
Taken in the same sequence, the figures for `O=c1oc2ccccc2c(O)c1C=NC(=S)c1ccncc1` were > 200 µM and 182 µM.
Taken in the same sequence, the figures for `CC1=CC(=O)N(n2c(C)n[nH]c2=O)C1=O` were > 200 µM and > 200 µM.
Taken in the same sequence, the figures for `COc1cc(C[C@@H](C)N)cc(OC)c1` were > 200 µM and > 200 µM.
`CCOC(=O)Nc1ccc2c(c1)c(CCCCCCc1nc3ccccc3c3ccc(NC(=O)OCC)cc13)nc1ccccc12`: the EC50 was > 100 µM and the IC50 is 21.4 µM.
For `COc1cccc(/C=C/C(=O)C(C)(C)C)c1` the same measures were > 24 µM and > 24 µM.
Taken in the same sequence, the figures for `COc1ccc(OC)c2c3c([nH]c12)C(=O)Nc1nc(N)nc(N)c1C3` were > 20 µM and 1 µM.
As for `COc1ccc(OC(C)C(=O)O)c2c1CCCC2=O` (stereo not given), the result was inactive.
As for `Cc1ccc(S(=O)(=O)N/N=C/CN2C(=O)c3ccccc3C2=O)cc1`, the EC50 was 182 µM and the IC50 turned out to be 191 µM.
In the case of `N#CC(C#N)SCc1ccccc1`, the outcome was inactive.
On the same count and under the same terms, to `CCCCCCC(C)CCCCCCCCCCC(=O)O` (stereo not given) belongs “inactive”.
In the case of `COP(=O)(OC)/C(C#N)=C/c1ccco1`, the EC50 was > 1100 µM and the IC50 was 832 µM.
For `N#CC(c1ccc(O)cc1)N1CCN(C(C#N)c2ccc(O)cc2)CC1` (stereo not given) the same measures were > 200 µM and > 200 µM.
Taken in the same sequence, the figures for `O=S1(=O)c2ccccc2C(c2ccccc2)(c2ccccc2)N1c1ccccc1` were > 75.9 µM and 55 µM.
For `NC(=O)c1ccc(NC=O)cc1` the same measures were > 1510 µM and 977 µM.
